These are literature values, as cited in patent US20110105330A1, “C[…]” (priority 2009, published 2011).

The conditions of the series: ph 1.9, 20° C.

Consider `O=C(O)CNCP(=O)(O)O` [Glyphosate, n-(phosphonomethyl) glycine], for which the solubility in water result is recorded as “approximately 10.5 g/L”.
